Results: PMC11681159, “Bee pollen peptides as potent tyrosinase inhibitors with anti-melanogenesis effects in murine b16f10 melanoma cells and zebrafish embryos” (Scientific Reports, 2024)
Entries after “also recorded” stand apart in the source; their conditions may differ. Ends that are not written are not given here.

Tests used:
Mitf = assay: qRT-PCR, Mitf mRNA; format: cell-based, mouse; conditions: B16F10, 48 h
Procedure: (§1) A 6-well plate was used to seed B16F10 cells at 1 × 10^5 cells per well prior to overnight incubation in a 5% CO2 humid atmosphere at 37°C. […] Harvesting was conducted via removal of the supernatant, and the cells were rinsed twice in PBS (phosphate-buffered saline). The PureLink™RNA Mini Kit (Invitrogen™, USA) was then used to extract total RNA in line with the guidance of the manufacturer. RNA concentration was assessed at 260 nm with a NanoDrop 2000 UV-Vis spectrophotometer (Thermo Fisher Scientific, Inc.). Oligo-dT primers and a Precision nanoScript II Reverse Transcription Kit (PrimerDesign, Camberley, UK) were used to perform the reverse transcription of 1 µg of total RNA to cDNA in line with the guidance of the manufacturer. MyGo Pro®Real time PCR apparatus (IT-IS International Ltd., Stokesley, UK) was then used to perform the qRT-PCR assays in which 20 µL of PCR reaction contained 1 µL of cDNA, 7 µL of ultrapure water, 1 µL of each primer […], and 10 µL of 2×qPCRBIO SyGreen Mix (PCR Biosystems Ltd, London, UK). This research made use of the following PCR primers: Gapdh forward 5’-[…]-3’, Gapdh reverse 5’-[…]-3’, Tyr forward 5’-[…]-3’, Tyr reverse 5’-[…]-3’, Trp-1 forward 5’-[…]-3’, Trp-1 reverse 5’-[…]-3’, Trp-2 forward 5’-[…]-3’, Trp-2 reverse 5’-[…]-3’, Mitf forward 5’-[…] − 3’, Mitf reverse 5’-[…]-3’. The initial stage of the process of qRT-PCR amplification was the activation step of thermal treatment where a temperature of 95 °C was used for 2 min, with 45 subsequent cycles comprising 10 s at 95 °C, 20 s at 60 °C, and 30 s at 72 °C, before embarking upon the final melting curve from 60 to 97 °C with 1 min for each step. The relative gene expression level could then be calculated via the cycle threshold (Ct) value, while the role of endogenous control for data normalization was occupied by Gapdh (the housekeeping gene). To calculate relative gene expression, the formula given below can be employed:2 [drawing 2]
(§2) where the heightened threshold cycle for the target gene is given as ΔΔCt.

Trp-2 = assay: qRT-PCR, Trp-2 mRNA; format: cell-based, mouse; conditions: B16F10, 48 h
Procedure: as §1, §2

B16F10 melanoma cells [1] = assay: Cell viability assay (MTT); format: cell-based, mouse; conditions: 72 h
Procedure: To perform the assay to establish cell viability, a 96-well plate was used for the seeding of the B16F10 cells at 5 × 10^3 cells/well. The cells were then left overnight to allow adherence. The VY-9 peptide at varying concentrations was then used to treat the cells for 72 h. MTT was produced as a 2.5 mg/mL solution in PBS whereupon 10 µL of this MTT solution was introduced to each well before incubating the plate for 4 h at 37 °C inside a humid 5% CO2 incubator. Following this step, the medium was removed the wells, and 200 µL of DMSO was added in its place. Finally, a microplate reader was employed to measure the absorbance for each of the wells at 540 nm, while arbutin (0.2 mM) served as the positive control. Each test was carried out in triplicate, with the findings presented in the form of mean ± standard deviation.

B16F10 melanoma cells [2] = assay: Melanin content assay in B16F10 cells; format: cell-based, mouse; conditions: VY-9 1.6 µM, 48 h, 405 nm
Procedure: In order to assess melanin content, culture flasks were used to grow B16F10 cells (1 × 10^5 cells/flask) for 24 h. […] Cell harvesting was conducted by trypsinization and the cells were then rinsed twice in cold PBS. The cell pellets were then dissolved in 0.3 mL of 1 N NaOH to produce solutions which were heated to 90 °C for a one-hour period. The lysates were then placed in a centrifuge for 10 min at 3,000 × g whereupon a microplate reader was used to assess the melanin quantity at 405 nm. The protein content in the supernatant was evaluated using the Bradford protein assay with the findings presented in the form of a percentage of the control. Arbutin (0.2 mM) served as the positive control. Each trial was carried out in triplicate, with results presented in the form of mean ± standard deviation.

[3] = system: TYR in B16F10 melanoma cells; assay: Cellular TYR assay; format: cell-based, mouse; conditions: VY-9 1.6 µM, 48 h, L-DOPA, 490 nm
Procedure: In order to assess the rate of oxidation for L-DOPA, culture flasks were used to first grow B16F10 cells (1 × 10^5 cells/flask) for 24 h. […] Cell harvesting was conducted by trypsinization and the cells were then rinsed twice in cold PBS. In the next step, PBS buffer (0.2 mL, pH 6.8) which contained 1% (w/v) Triton X-100 and 1 mM PMSF was introduced to the lysed cell pellets, whereupon amounts of 100 µL of the lysed cells were added to a 96-well plate by pipette, along with 100 µL of 2 mM L-DOPA. This was followed by a one-hour incubation period while the temperature was maintained at 37 °C. A microplate reader was then used to detect the formation of dopachrome in the mixture at 490 nm. The findings are presented in terms of percentage of the control, while arbutin (0.2 mM) served as the positive control. Each test was carried out in triplicate, with the findings presented in the form of mean ± standard deviation.

zebrafish embryos = assay: Acute toxicity in zebrafish embryos; format: in vivo
Procedure: To perform the test of acute toxicity, a total of 20 fertilized zebrafish embryos were collected at around 4 h after fertilization and added to each well in a 12-well plate. […] Incubation of the plate then took place until 48 h after fertilization at a temperature of 28.5 ± 1 °C. The test solutions were refreshed at 24 h after fertilization to allow the counting and removal of any dead embryos. Following exposure, a stereomicroscope (SZX16, Olympus, Japan) was used to record the embryo morphological effects. Meanwhile, a slightly modified version of a previously described melanin inhibitory assay was carried out[30]. The embryos were then homogenized using a cold lysis buffer (PBS pH 7.4, 1% Triton-X and 1% DMSF). The lysate then underwent 10 min of sonication before being placed in a centrifuge for 5 min at 10,000×g. The pellet was then removed from the centrifuge and dissolved in 200 µL of 1 N NaOH for 1 h at a temperature of 85 °C. This sample was subsequently vortexed and placed in the centrifuge for a further 5 min at 10,000×g. A microplate reader (Spectramax M5, Molecular Devices, USA) was then employed to determine the supernatant absorbance at 490 nm. Melanin content levels could then by calibrated by using the protein amount, and were reported in the form of a percentage compared to the untreated control. In the melanin inhibitory assay, the positive control used was phenylthiourea (PTU) solution (0.0015%).

Sequence: VDGYPAAGY [VY-9, Val-Asp-Gly-Tyr-Pro-Ala- Ala-Gly-Tyr]
- Mitf mRNA expression vs control (Mitf; 1.6 µM): significantly reduced the expression levels of all measured genes
- concentration from which Mitf mRNA expression decreased (Mitf; vs control): 0.2 µM
- Mitf mRNA expression vs arbutin (Mitf; VY-9 1.6 µM vs arbutin 0.2 mM): significantly decreased compared to arbutin
- TRP-2 mRNA level vs control (Trp-2; 0.2 µM): decreased slightly compared to the control
- Trp-2 mRNA expression vs control (Trp-2; 1.6 µM): significantly reduced the expression levels of all measured genes
- concentration from which Trp-2 mRNA expression decreased (Trp-2; vs control): 0.2 µM
- Trp-2 mRNA expression vs arbutin (Trp-2; VY-9 1.6 µM vs arbutin 0.2 mM): significantly decreased compared to arbutin
- cytotoxicity in B16F10 cells (B16F10 melanoma cells [1]; 0 to 1.6 µM (abstract: 0.2–1.6 µM)): negligible cytotoxicity; also recorded: no clear signs of cytotoxicity
- B16F10 cell viability (B16F10 melanoma cells [1]; 0 to 1.6 µM, triplicate): > 50%
- reduction in melanin content (B16F10 melanoma cells [2]): 52.31%
- cellular TYR activity, rate of inhibition [3]: 44.88%
- embryo development (zebrafish embryos; 20 µM): the development of the embryo was significantly retarded
- embryo survival / malformation (zebrafish embryos; 2–10 µM, vs control): no significant influence; also recorded: no significant difference in the rates for survival or malformation
- no observed effect concentration (NOEC) (zebrafish embryos; zebrafish embryos, to 48 h after fertilization, 28.5 °C): 10 µM
